From ChEMBL document CHEMBL1158456, “Synergistic effect of zanamivir-porphyrin conjugates on inhibition of neuraminidase and inactivation of influenza virus” (J Med Chem, 2009) come the findings set out here.

SMILES strings stand for the structures. Activity calls are given as the source filed them. The rule behind the calls is not given here. Bounds are passed on as bounds.

What is called EC50 is the midpoint of the concentration-response curve. By IC50 is commonly meant the point on the concentration scale where inhibition reaches its midpoint. A word on the inhibition: it is the relative decrease from the control value, in per cent.

Assay [1] relates to Influenza A virus. Put plainly: Antiviral activity against influenza A virus A/WSN/1933 H1N1 infected in MDCK cells assessed as protection against virus-induced cytopathic effect after 48 hrs. It is filed as functional, organism-based.
Assay [2] concerns Influenza A virus. Put plainly: Antiviral activity against influenza A virus A/WSN/1933 H1N1 infected in MDCK cells after 3 days by plaque reduction assay. The conditions noted are these: 72 h. The format is functional, organism-based. (In general: Plaques are areas of infected cells; plaque reduction assays count them against a control.)
In assay [3] the test system is Influenza A virus. The experiment in a line: Inhibition of influenza A virus A/WSN/1933 H1N1-induced hemagglutinination of chicken RBC. The format is functional, organism-based.
Assay [4] concerns Influenza A virus. The experiment in a line: Antiviral activity against influenza A virus A/Vietnam/1194/2004 H5N1 infected in MDCK cells assessed as protection against virus-induced cytopathic effect after 48 hrs. It is filed as functional, organism-based. On the technique in general: Protection from cytopathic effect is a common read-out in antiviral testing.
The test system of assay [5] is Influenza A virus (A/Vietnam/1194/2004(H5N1)). Put plainly: Binding affinity to influenza A virus A/Vietnam/1194/2004 H5N1 hemagglutininin to alpha-2,3-sialic acid galactosyl oligomers.
Assay [6] deals with T1, Neuraminidase (Influenza A virus, UniProt B4URF0). Put plainly: Inhibition of influenza A virus A/WSN/1933 H1N1 neuraminidase using NA-STAR substrate after 15 mins incubation at room temperature by fluorescent assay.
T1 sequence (B4URF0 whole entry): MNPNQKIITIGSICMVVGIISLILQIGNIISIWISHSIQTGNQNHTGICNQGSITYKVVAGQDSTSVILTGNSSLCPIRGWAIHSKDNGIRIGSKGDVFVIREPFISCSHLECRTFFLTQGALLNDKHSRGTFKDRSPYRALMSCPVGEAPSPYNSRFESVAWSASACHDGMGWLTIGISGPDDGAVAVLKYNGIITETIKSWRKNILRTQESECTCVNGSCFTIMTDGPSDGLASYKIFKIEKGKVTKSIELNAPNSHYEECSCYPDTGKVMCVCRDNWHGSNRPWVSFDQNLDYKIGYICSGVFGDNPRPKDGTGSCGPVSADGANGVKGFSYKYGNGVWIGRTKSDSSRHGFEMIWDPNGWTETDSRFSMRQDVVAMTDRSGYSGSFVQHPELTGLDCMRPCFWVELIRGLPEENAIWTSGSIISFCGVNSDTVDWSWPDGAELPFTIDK
The target in assay [7] is T1, Neuraminidase. Put plainly: Inhibition of influenza A virus A/Vietnam/1194/2004 H5N1 neuraminidase using NA-STAR substrate after 15 mins incubation at room temperature by fluorescent assay.
The test system of assay [8] is Influenza A virus. The experiment in a line: Antiviral activity against influenza A virus A/WSN/1933 H1N1 infected in MDCK cells assessed as reduction of infectious viral titer at 40 nM incubated for 1 hr measured after 3 days relative to control. The format is functional. Also on record: scale not given: the % may be the effect or the level left.
For assay [9], the system named is Influenza A virus. The experiment in a line: Antiviral activity against influenza A virus A/WSN/1933 H1N1 infected in MDCK cells assessed as reduction of infectious viral titer at 100 nM incubated for 1 hr under laminar flow hood light before infection measured after 3 days in presence of 10 fold excess zanamivir. It is filed as functional, organism-based.
Assay [10] concerns Influenza A virus. The experiment in a line: Antiviral activity against influenza A virus A/WSN/1933 H1N1 infected in MDCK cells assessed as reduction of infectious viral titer incubated for 1 hr measured after 3 days. It is filed as functional, organism-based.
Assay [11] relates to Influenza A virus. The experiment in a line: Antiviral activity against influenza A virus A/WSN/1933 H1N1 infected in MDCK cells assessed as reduction of infectious viral titer at 500 nM incubated for 1 hr under laminar flow hood light before infection measured after 3 days in presence of 10 fold excess zanamivir. It is filed as functional, organism-based.
Assay [12] relates to Influenza A virus. The experiment in a line: Antiviral activity against influenza A virus A/WSN/1933 H1N1 infected in MDCK cells assessed as reduction of infectious viral titer at 500 nM incubated for 1 hr under laminar flow hood light before infection measured after 3 days. The format is functional, organism-based.
For assay [13], the system named is Influenza A virus. The experiment in a line: Antiviral activity against influenza A virus A/WSN/1933 H1N1 infected in MDCK cells assessed as reduction of infectious viral titer at 0.4 to 10 uM incubated for 1 hr measured after 3 days relative to control. It is filed as functional. Details: scale not given: the % may be the effect or the level left.
The subject of assay [14] is Influenza A virus. Put plainly: Antiviral activity against influenza A virus A/WSN/1933 H1N1 infected in MDCK cells assessed as reduction of infectious viral titer at 100 nM incubated for 1 hr under laminar flow hood light before infection measured after 3 days. The format is functional, organism-based.
Assay [15] has as its system Influenza A virus. The experiment in a line: Antiviral activity against influenza A virus A/WSN/1933 H1N1 infected in MDCK cells assessed as reduction of infectious viral titer at 200 nM incubated for 1 hr measured after 3 days. It is filed as functional. Details: scale not given: the % may be the effect or the level left.
The test system of assay [16] is Influenza A virus. Put plainly: Antiviral activity against influenza A virus A/Vietnam/1194/2004 H5N1 infected in MDCK cells after 3 days by plaque reduction assay. It is filed as functional, organism-based. The conditions noted are these: 72 h.
Assay [17] addresses Neuraminidase (Influenza A virus) (UniProt B4URF0). Put plainly: Inhibition of influenza A virus A/WSN/1933 H1N1 neuraminidase at 10 nM using NA-STAR substrate after 15 mins incubation at room temperature by fluorescent assay relative to control.
In assay [18] the test system is Influenza A virus. The experiment in a line: Ratio of EC50 for drug to EC50 for zanamivir against influenza A virus A/Vietnam/1194/2004 H5N1 by plaque reduction assay. It is filed as functional.
Assay [19] concerns the target Neuraminidase (Influenza A virus) (UniProt B4URF0). The experiment in a line: Inhibition of influenza A virus A/Vietnam/1194/2004 H5N1 neuraminidase at 10 nM using NA-STAR substrate after 15 mins incubation at room temperature by fluorescent assay relative to control.
Assay [20] shares this target. The experiment in a line: Inhibition of influenza A virus A/Vietnam/1194/2004 H5N1 neuraminidase at 40 nM using NA-STAR substrate after 15 mins incubation at room temperature by fluorescent assay relative to control.
The target is the same in assay [21]. Put plainly: Inhibition of influenza A virus A/WSN/1933 H1N1 neuraminidase at 40 nM using NA-STAR substrate after 15 mins incubation at room temperature by fluorescent assay relative to control.

Neuraminidase (Influenza A virus), sequence (B4URF0 as listed by the source): as the sequence (B4URF0 whole entry) above

As for `CC(=O)N[C@H]1[C@H]([C@H](OC(=O)NCc2cn(CCOCCOCCOCCNC(=O)COc3ccc(-c4c5nc(c(-c6ccc(OCC(=O)NCCOCCOCCOCCn7cc(CNC(=O)O[C@@H]([C@@H]8OC(C(=O)O)=C[C@H](NC(=N)N)[C@H]8NC(C)=O)[C@H](O)CO)nn7)cc6)c6ccc([nH]6)c(-c6ccc(OCC(=O)NCCOCCOCCOCCn7cc(CNC(=O)O[C@@H]([C@@H]8OC(C(=O)O)=C[C@H](NC(=N)N)[C@H]8NC(C)=O)[C@H](O)CO)nn7)cc6)c6nc(c(-c7ccc(OCC(=O)NCCOCCOCCOCCn8cc(CNC(=O)O[C@@H]([C@@H]9OC(C(=O)O)=C[C@H](NC(=N)N)[C@H]9NC(C)=O)[C@H](O)CO)nn8)cc7)c7ccc4[nH]7)C=C6)C=C5)cc3)nn2)[C@H](O)CO)OC(C(=O)O)=C[C@@H]1NC(=N)N`, the outcome in the assay on Influenza A virus [1] and in the assay with Influenza A virus [4] was Active. In the assay on Influenza A virus [2], this molecule registered an EC50 of 0.5 nM. In addition, the result (with Influenza A virus [3]; in [5]) was inactive.
In the case of `CC(=O)N[C@H]1[C@H]([C@H](OC(=O)NCc2cn(CCOCCOCCOCCNC(=O)COc3ccc(-c4c5nc(c(-c6ccc(OCC(=O)NCCOCCOCCOCCn7cc(CNC(=O)O[C@@H]([C@@H]8OC(C(=O)O)=C[C@H](N=C(N)N)[C@H]8NC(C)=O)[C@H](O)CO)nn7)cc6)c6ccc([nH]6)c(-c6ccc(OCC(=O)NCCOCCOCCOCCn7cc(CNC(=O)O[C@@H]([C@@H]8OC(C(=O)O)=C[C@H](N=C(N)N)[C@H]8NC(C)=O)[C@H](O)CO)nn7)cc6)c6nc(c(-c7ccc(OCC(=O)NCCOCCOCCOCCn8cc(CNC(=O)O[C@@H]([C@@H]9OC(C(=O)O)=C[C@H](N=C(N)N)[C@H]9NC(C)=O)[C@H](O)CO)nn8)cc7)c7ccc4[nH]7)C=C6)C=C5)cc3)nn2)[C@H](O)CO)OC(C(=O)O)=C[C@@H]1N=C(N)N`, the results for the IC50 at Neuraminidase [6] and against Neuraminidase [7] were 8.5 nM and 16 nM, respectively.
Take `CC(=O)N[C@H]1[C@H]([C@H](OC(=O)NCc2cn(CCOCCOCCOCCOCCNC(=O)COc3ccc(-c4c5nc(c(-c6ccc(OCC(=O)NCCOCCOCCOCCOCCn7cc(CNC(=O)O[C@@H]([C@@H]8OC(C(=O)O)=C[C@H](N=C(N)N)[C@H]8NC(C)=O)[C@H](O)CO)nn7)cc6)c6ccc([nH]6)c(-c6ccc(OCC(=O)NCCOCCOCCOCCOCCn7cc(CNC(=O)O[C@@H]([C@@H]8OC(C(=O)O)=C[C@H](N=C(N)N)[C@H]8NC(C)=O)[C@@H](O)CO)nn7)cc6)c6nc(c(-c7ccc(OCC(=O)NCCOCCOCCOCCOCCn8cc(CNC(=O)O[C@@H]([C@@H]9OC(C(=O)O)=C[C@H](N=C(N)N)[C@H]9NC(C)=O)[C@H](O)CO)nn8)cc7)c7ccc4[nH]7)C=C6)C=C5)cc3)nn2)[C@H](O)CO)OC(C(=O)O)=C[C@@H]1N=C(N)N`: the IC50 stood at 3.7 nM on Neuraminidase [6] and 7.6 nM on Neuraminidase [7].
With `CC(=O)N[C@H]1[C@H]([C@H](OC(=O)NCc2cn(CCOCCOCCOCCOCCNC(=O)COc3ccc(-c4c5nc(c(-c6ccc(OCC(=O)NCCOCCOCCOCCOCCn7cc(CNC(=O)O[C@@H]([C@@H]8OC(C(=O)O)=C[C@H](NC(=N)N)[C@H]8NC(C)=O)[C@H](O)CO)nn7)cc6)c6ccc([nH]6)c(-c6ccc(OCC(=O)NCCOCCOCCOCCOCCn7cc(CNC(=O)O[C@@H]([C@@H]8OC(C(=O)O)=C[C@H](NC(=N)N)[C@H]8NC(C)=O)[C@@H](O)CO)nn7)cc6)c6nc(c(-c7ccc(OCC(=O)NCCOCCOCCOCCOCCn8cc(CNC(=O)O[C@@H]([C@@H]9OC(C(=O)O)=C[C@H](NC(=N)N)[C@H]9NC(C)=O)[C@H](O)CO)nn8)cc7)c7ccc4[nH]7)C=C6)C=C5)cc3)nn2)[C@H](O)CO)OC(C(=O)O)=C[C@@H]1NC(=N)N`, the result in the assay on Influenza A virus [1], in the assay with Influenza A virus [4], in the assay on Influenza A virus [12] and in the assay with Influenza A virus [14] was Active. Further, the Activity was less than 20% in the assay on Influenza A virus [8], “Dose-dependent effect” in the assay on Influenza A virus [10], 60% in the assay with Influenza A virus [13] and more than 95% with Influenza A virus [15]. The outcome (in the assay on Influenza A virus [9]; in the assay with Influenza A virus [11]; in the assay on Influenza A virus [3]; in [5]) was inactive. In addition, a half-maximal effect in the assay on Influenza A virus [2] (EC50) was put at 0.1 nM.
Turning to `CC(=O)N[C@H]1[C@H]([C@H](O)[C@H](O)CO)OC(C(=O)O)=C[C@@H]1NC(=N)N` [ZANAMIVIR], the figures for the EC50 in the assay on Influenza A virus [2] and in the assay on Influenza A virus [16] were 11 nM and 613 nM, respectively. Besides, the outcome with Influenza A virus [12] and in the assay with Influenza A virus [14] was inactive.
`Oc1ccc(-c2c3nc(c(-c4ccc(O)cc4)c4ccc([nH]4)c(-c4ccc(O)cc4)c4nc(c(-c5ccc(O)cc5)c5ccc2[nH]5)C=C4)C=C3)cc1`: the result in the assay on Influenza A virus [12] and in the assay on Influenza A virus [14] was inactive.
With `CC(=O)N[C@H]1[C@H]([C@H](OC(=O)NCc2cn(CCOCOc3ccc(-c4c5nc(c(-c6ccc(OCOCCn7cc(CNC(=O)O[C@@H]([C@@H]8OC(C(=O)O)=C[C@H](NC(=N)N)[C@H]8NC(C)=O)[C@H](O)CO)nn7)cc6)c6ccc([nH]6)c(-c6ccc(OCOCCn7cc(CNC(=O)O[C@@H]([C@@H]8OC(C(=O)O)=C[C@H](NC(=N)N)[C@H]8NC(C)=O)[C@H](O)CO)nn7)cc6)c6nc(c(-c7ccc(OCOCCn8cc(CNC(=O)O[C@@H]([C@@H]9OC(C(=O)O)=C[C@H](NC(=N)N)[C@H]9NC(C)=O)[C@H](O)CO)nn8)cc7)c7ccc4[nH]7)C=C6)C=C5)cc3)nn2)[C@H](O)CO)OC(C(=O)O)=C[C@@H]1NC(=N)N`, the outcome in the assay on Influenza A virus [1] and with Influenza A virus [4] was Active. In addition, the inhibition in assay [17] stood at 24%; in [19], 24%; in [20], 51%; in assay [21], 51%. The values for the EC50 with Influenza A virus [2] and in the assay on Influenza A virus [16] were 2 nM and 11 nM, respectively. The “Ratio EC50” value with Influenza A virus [18] is 55. Further, the outcome (in the assay on Influenza A virus [3]; in [5]) was inactive.
At Neuraminidase [6], `CC(=O)N[C@H]1[C@H]([C@H](OC(=O)NCc2cn(CCOCOc3ccc(-c4c5nc(c(-c6ccc(OCOCCn7cc(CNC(=O)O[C@@H]([C@@H]8OC(C(=O)O)=C[C@H](N=C(N)N)[C@H]8NC(C)=O)[C@H](O)CO)nn7)cc6)c6ccc([nH]6)c(-c6ccc(OCOCCn7cc(CNC(=O)O[C@@H]([C@@H]8OC(C(=O)O)=C[C@H](N=C(N)N)[C@H]8NC(C)=O)[C@H](O)CO)nn7)cc6)c6nc(c(-c7ccc(OCOCCn8cc(CNC(=O)O[C@@H]([C@@H]9OC(C(=O)O)=C[C@H](N=C(N)N)[C@H]9NC(C)=O)[C@H](O)CO)nn8)cc7)c7ccc4[nH]7)C=C6)C=C5)cc3)nn2)[C@H](O)CO)OC(C(=O)O)=C[C@@H]1N=C(N)N` registered an IC50 of 11 nM.
